# In US20220047569A1, “METHOD AND COMPOUND FOR USE, IN TREATING AND/OR PREVENTING NETOSIS” (Jubilant EpiPad LLC, priority 2020, published 2022):
# pIC50: −log10 of the molar value. Where a name gives a salt, the structure may show the parent alone.
# Test system: Histone H3 Citrullination in Neutrophils
# Assay: Citrullination ELISA (Citrullinated Histone H3) in calcium ionophore stimulated neutrophils
# Assay type: cell-based
# Details: Neutrophil; human neutrophils, 25 μM calcium ionophore, CitH3 ELISA
# Method: Neutrophils were isolated according to the EasySep Direct Human Neutrophil Isolation Kit. In short, 50 mL of blood sample was drawn in a vacutainer containing K2EDTA from a healthy donor. To the whole blood, the isolation cocktail of 50 μL/mL was added. Then, in the next step 50 μL/mL of RapidSpheres™ was added to the sample. The sample was mixed evenly with the pipette and incubated for 10 minutes at room temperature. After incubation, PBS containing 1 mM EDTA was added at the ratio of 1:1 to the blood. Then the sample tube was incubated for 10 minutes. The enriched cell suspension was transferred into a new tube and RapidSpheres™ were added at 50 μL/mL to this suspension, mixed and incubated for 10 minutes at room temperature. At this step, the enriched cell suspension was carefully collected as a clear fraction into a fresh tube. Then, previous tube was replaced with the fresh tube containing enriched cell suspension. After the final separation, the clear solution of enriched cell suspension was carefully transferred to fresh tube which was ready to use for the experiment. These cells were then subjected to wash twice with plain RPMI 1640 media without Fetal Bovine Serum (FBS) and centrifuged at 1500 rpm for 5 minutes at room temperature. Cell counts were performed on each sample by Invitrogen cell counter. After the cell count, cell density was adjusted according to the experiment and re-suspended in complete RPMI media containing RPMI1640, 2% BSA and 1 mM CaCl2.
# Freshly isolated neutrophils from human donor were seeded at a density of 0.5×10^6 cells in 400 μL cell suspension/well in a 24-well plate and cells were pre-incubated with the compound for 30 minutes by adding 50 μL of the 10× concentration to achieve the final 1× concentration of compound (10 μM, 1 μM and 0.1 μM). 1% DMSO was added in control wells. Then, the cells were stimulated in the presence and absence of calcium ionophore by adding 50 μL/well to achieve the final concentration of 25 μM. Upon incubation for 30 minutes with calcium ionophore, S7 nuclease was added to the wells and incubated for 10 minutes to disrupt NET DNA. Following incubation, 10 μL of 1 mM EDTA was added to inactivate nuclease. Cells were scrapped gently and transferred to the tubes, followed by centrifugation at 1500 rpm for 5 minutes. After centrifugation, supernatant was discarded, and 200 μL of lysis buffer containing PBS and 1× Protease inhibitor was added to the tubes. The obtained lysis was then subjected to mechanical shearing using Geno grinder by spin the plate at 2500 rpm for 10 minutes, followed by collection of supernatant and stored at −20° C. or immediately used for ELISA.
# ELISA was performed as per Citrullinated Histone H3 ELISA Kit. All the buffer components from the kit were dissolved according to the manufactures protocol. ELISA Buffer Concentrate (10×) (Item No. 400060) and Wash Buffer Concentrate (400×) (Item No. 400060) along with polysorbate 20 (2000×) (Item No. 400035) was diluted to 1× with milliQ water. The standard for use in the ELISA was prepared as follows: • Obtain eight clean test tubes and label them, #1 through #8. Aliquot 4.9 mL of ELISA Buffer into tube #1. • Aliquot 500 μL of ELISA Buffer into the tubes #2-8. […] This tube is considered as blank, the lowest point on the standard curve.
# 100 μL of standards or diluted sample was added to the appropriate wells on the 96-well plate. Plates were covered with 96-well cover sheet and incubated for two hours at room temperature on an orbital shaker. The samples and standard were removed from the wells and washed four times with Wash Buffer. After the last wash, Anti-Histone H3 HRP Conjugate (Item No. 501441) (10×) stock solution was diluted in 1×ELISA buffer and 100 μL of the HRP Conjugate working solution was added to each well of the plate and incubated for one hour at room temperature on an orbital shaker. […]
row,pIC50,Structure (SMILES)
1,< 6.00,"Cc1c(-c2cc3ccccc3n2CC2CCC2)nc2cc(C(=O)N3CCC[C@@H](N)C3)ccn12 [Compound 61, (R)-(3-aminopiperidin-1-yl)(2-(1-(cyclobutylmethyl)-1H-indol-2-yl)-3-methylimidazo[1,2-a]pyridin-7-yl)methanone]"
2,6.00 to 7.00,"Cc1c(-c2cc3ccccc3n2Cc2ncccc2F)nc2cc(C(=O)N3CCC[C@@H](N)C3)ccn12 [Compound 62, (R)-(3-aminopiperidin-1-yl)(2-(1-((3-fluoropyridin-2-yl)methyl)-1H-indol-2-yl)-3-methylimidazo[1,2-a]pyridin-7-yl)methanone]"
3,< 6.00,"CCn1c(-c2nc3cc(C(=O)N4CCC[C@@H](N)C4)ccn3c2C)cc2ccc(OC)cc21 [Compound 67, (R)-(3-aminopiperidin-1-yl)(2-(1-ethyl-6-methoxy-1H-indol-2-yl)-3-methylimidazo[1,2-a]pyridin-7-yl)methanone]"
4,> 7.00,"Cc1c(-c2cc3ccc(F)cc3n2Cc2ccncc2)nc2cc(C(=O)N3CCC[C@@H](N)C3)ccn12 [Compound 68, (R)-(3-aminopiperidin-1-yl)(2-(6-fluoro-1-(pyridin-4-ylmethyl)-1H-indol-2-yl)-3-methylimidazo[1,2-a]pyridin-7-yl)methanone]"
5,6.00 to 7.00,"Cc1c(-c2cc3ccc(F)cc3n2Cc2cccnc2)nc2cc(C(=O)N3CCC[C@@H](N)C3)ccn12 [Compound 69, (R)-(3-aminopiperidin-1-yl)(2-(6-fluoro-1-(pyridin-3-ylmethyl)-1H-indol-2-yl)-3-methylimidazo[1,2-a]pyridin-7-yl)methanone]"
6,> 7.00,"COc1cccc(Cn2c(-c3nc4cc(C(=O)N5CCC[C@@H](N)C5)ccn4c3C)cc3ccc(F)cc32)c1 [Compound 70, (R)-(3-aminopiperidin-1-yl)(2-(6-fluoro-1-(3-methoxybenzyl)-1H-indol-2-yl)-3-methylimidazo[1,2-a]pyridin-7-yl)methanone]"
7,< 6.00,"COc1ccc(Cn2c(-c3nc4cc(C(=O)N5CCC[C@@H](N)C5)ccn4c3C)cc3ccc(F)cc32)cc1 [Compound 71, (R)-(3-aminopiperidin-1-yl)(2-(6-fluoro-1-(4-methoxybenzyl)-1H-indol-2-yl)-3-methylimidazo[1,2-a]pyridin-7-yl)methanone]"
8,6.00 to 7.00,"CCn1c(-c2nc3cc(C(=O)N4CCC[C@@H](N)C4)ccn3c2C)cc2ccc(F)cc21 [Compound 72, (R)-(3-aminopiperidin-1-yl)(2-(1-ethyl-6-fluoro-1H-indol-2-yl)-3-methylimidazo[1,2-a]pyridin-7-yl)methanone]"
9,< 6.00,"Cc1c(-c2cc3cc(F)ccc3n2Cc2ccncc2)nc2cc(C(=O)N3CCC[C@@H](N)C3)ccn12 [Compound 74, (R)-(3-aminopiperidin-1-yl)(2-(5-fluoro-1-(pyridin-4-ylmethyl)-1H-indol-2-yl)-3-methylimidazo[1,2-a]pyridin-7-yl)methanone]"
10,6.00 to 7.00,"COc1ccc(Cn2c(-c3nc4cc(C(=O)N5CCC[C@@H](N)C5)ccn4c3C)cc3cc(F)ccc32)cc1 [Compound 75, (R)-(3-aminopiperidin-1-yl)(2-(5-fluoro-1-(4-methoxybenzyl)-1H-indol-2-yl)-3-methylimidazo[1,2-a]pyridin-7-yl)methanone]"
11,< 6.00,"Cc1c(-c2cc3cc(F)ccc3n2Cc2ccc(F)cc2)nc2cc(C(=O)N3CCC[C@@H](N)C3)ccn12 [Compound 76, (R)-(3-aminopiperidin-1-yl)(2-(5-fluoro-1-(4-fluorobenzyl)-1H-indol-2-yl)-3-methylimidazo[1,2-a]pyridin-7-yl)methanone]"
12,< 6.00,"Cc1c(-c2cc3ccccc3n2CC(F)F)nc2cc(C(=O)N3CCC[C@@H](N)C3)ccn12 [Compound 78, (R)-(3-aminopiperidin-1-yl)(2-(1-(2,2-difluoroethyl)-1H-indol-2-yl)-3-methylimidazo[1,2-a]pyridin-7-yl)methanone trifluoroacetic acid salt]"
13,< 6.00,"Cc1c(-c2cc3ccccc3n2Cc2ccc(F)cn2)nc2cc(C(=O)N3CCC[C@@H](N)C3)ccn12 [Compound 79, (R)-(3-aminopiperidin-1-yl)(2-(1-((5-fluoropyridin-2-yl)methyl)-1H-indol-2-yl)-3-methylimidazo[1,2-a]pyridin-7-yl)methanone]"
14,< 6.00,"COc1ccc2cc(-c3nc4cc(C(=O)N5CCC[C@@H](N)C5)ccn4c3C)n(Cc3ccc(F)cc3)c2c1 [Compound 80, (R)-(3-aminopiperidin-1-yl)(2-(1-(4-fluorobenzyl)-6-methoxy-1H-indol-2-yl)-3-methylimidazo[1,2-a]pyridin-7-yl)methanone]"
15,< 6.00,"Cc1c(-c2cc3ccccc3n2Cc2ccc(CO)cc2)nc2cc(C(=O)N3CCC[C@@H](N)C3)ccn12 [Compound 81, (R)-(3-aminopiperidin-1-yl)(2-(1-(4-(hydroxymethyl)benzyl)-1H-indol-2-yl)-3-methylimidazo[1,2-a]pyridin-7-yl)methanone]"
16,6.00 to 7.00,"N[C@@H]1CCCN(C(=O)c2cc3c4c(c2)nc(-c2cc5ccccc5n2CC2CC2)n4CCO3)C1 [Compound 87, (R)-(3-aminopiperidin-1-yl)(2-(1-(cyclopropylmethyl)-1H-indol-2-yl)-3,4-dihydro-5-oxa-1,2a-diazaacenaphthylen-7-yl)methanone]"
17,> 7.00,"N[C@@H]1CCCN(C(=O)c2cc3c4c(c2)nc(-c2cc5cc(F)ccc5n2CC2CC2)n4CCO3)C1 [Compound 95, (R)-(3-aminopiperidin-1-yl)(2-(1-(cyclopropylmethyl)-5-fluoro-1H-indol-2-yl)-3,4-dihydro-5-oxa-1,2a-diazaacenaphthylen-7-yl)methanone]"
18,6.00 to 7.00,"N[C@@H]1CCCN(C(=O)c2cc3c4c(c2)nc(-c2cc5ccccc5n2Cc2ccccn2)n4CCO3)C1 [Compound 97, (R)-(3-aminopiperidin-1-yl)(2-(1-(pyridin-2-ylmethyl)-1H-indol-2-yl)-3,4-dihydro-5-oxa-1,2a-diazaacenaphthylen-7-yl)methanone]"
19,6.00 to 7.00,"N[C@@H]1CCCN(C(=O)c2cc3c4c(c2)nc(-c2cc5ccccc5n2Cc2ccc(Cl)cc2)n4CCO3)C1 [Compound 99, (R)-(3-aminopiperidin-1-yl)(2-(1-(4-chlorobenzyl)-1H-indol-2-yl)-3,4-dihydro-5-oxa-1,2a-diazaacenaphthylen-7-yl)methanone]"
20,> 7.00,"N[C@@H]1CCCN(C(=O)c2cc3c4c(c2)nc(-c2cc5ccccc5n2Cc2ccccc2F)n4CCO3)C1 [Compound 100, (R)-(3-aminopiperidin-1-yl)(2-(1-(2-fluorobenzyl)-1H-indol-2-yl)-3,4-dihydro-5-oxa-1,2a-diazaacenaphthylen-7-yl)methanone]"
21,> 7.00,"N[C@@H]1CCCN(C(=O)c2cc3c4c(c2)nc(-c2cc5ccccc5n2Cc2cccnc2)n4CCO3)C1 [Compound 102, (R)-(3-aminopiperidin-1-yl)(2-(1-(pyridin-3-ylmethyl)-1H-indol-2-yl)-3,4-dihydro-5-oxa-1,2a-diazaacenaphthylen-7-yl)methanone]"
22,> 7.00,"COc1cc2cc(-c3nc4cc(C(=O)N5CCC[C@@H](N)C5)cc5c4n3CCO5)n(CC3CC3)c2cc1OC [Compound 103, (R)-(3-aminopiperidin-1-yl)(2-(1-(cyclopropylmethyl)-5,6-dimethoxy-1H-indol-2-yl)-3,4-dihydro-5-oxa-1,2a-diazaacenaphthylen-7-yl)methanone]"
